Data published in paper PMC10108347, “Heterobifunctional Ligase Recruiters Enable pan-Degradation of Inhibitor of Apoptosis Proteins” (Journal of Medicinal Chemistry, 2023).
Like-named read-outs stand apart in the source and are kept apart here.

Columns and labels:
VHL30 = VHL30 (Homo sapiens, UniProt P40337); experiment: Immunoblotting (western blot) quantification of VHL30 levels in MM.1S cells; conditions: for remaining activity at 0.1 µM: MM1.S
XIAP = XIAP (Homo sapiens, UniProt P98170); experiment: Immunoblotting (western blot) quantification of XIAP levels in MM.1S cells; conditions: MM1.S, 16 h
Chain of XIAP (P98170 whole entry): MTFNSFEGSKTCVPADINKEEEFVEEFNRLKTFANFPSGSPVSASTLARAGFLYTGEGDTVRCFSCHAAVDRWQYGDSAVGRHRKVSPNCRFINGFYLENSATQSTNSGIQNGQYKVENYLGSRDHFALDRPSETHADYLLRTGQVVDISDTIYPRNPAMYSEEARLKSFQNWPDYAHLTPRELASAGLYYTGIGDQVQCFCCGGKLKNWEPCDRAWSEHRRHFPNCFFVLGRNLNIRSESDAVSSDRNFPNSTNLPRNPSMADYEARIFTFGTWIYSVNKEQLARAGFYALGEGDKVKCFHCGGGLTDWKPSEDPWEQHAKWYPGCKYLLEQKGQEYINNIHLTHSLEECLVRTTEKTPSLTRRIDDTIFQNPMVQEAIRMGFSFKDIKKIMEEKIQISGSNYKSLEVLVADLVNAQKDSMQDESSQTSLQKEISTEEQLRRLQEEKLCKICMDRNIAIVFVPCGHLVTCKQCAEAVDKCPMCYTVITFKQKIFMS
Protocol: To evaluate the capability of our panel of hetero-PROTACs for E3 ligase degradation, VHL19, VHL30, CRBN, cIAP1, cIAP2, and XIAP levels were quantified by western blot analyses. […] SDS-PAGE was performed, and proteins were then transferred onto PVDF membranes. Blotted membranes were blocked with 5% milk in Tris-buffered saline/Tween20 (TBST). Primary antibodies were diluted in 5% BSA in TBST, and incubations were performed overnight at 4 °C. Secondary HRP-conjugated antibodies diluted in 5% milk were incubated for 1 h at room temperature. Detection of proteins on PVDF was carried out using the WesternBright ECL HRP substrate or the WesternBright Sirius HRP substrate (Advansta, San Jose, USA) and imaged with LAS 4000× (Fujifilm). Membranes were subjected to 10 min incubation with Restore Western Blot Stripping Buffer (Thermo Fisher Scientific, Waltham, USA), followed by TBST washes. After brief re-activation with methanol, the membranes were blocked, and further probing of proteins was carried out.
Quantification of blots was performed using ImageJ software (National Institutes of Health).

cIAP1 = cIAP1 (Homo sapiens, UniProt Q13490); experiment: Immunoblotting (western blot) quantification of cIAP1 levels in MM.1S cells; conditions: MM1.S, 16 h
Chain of cIAP1 (Q13490 whole entry): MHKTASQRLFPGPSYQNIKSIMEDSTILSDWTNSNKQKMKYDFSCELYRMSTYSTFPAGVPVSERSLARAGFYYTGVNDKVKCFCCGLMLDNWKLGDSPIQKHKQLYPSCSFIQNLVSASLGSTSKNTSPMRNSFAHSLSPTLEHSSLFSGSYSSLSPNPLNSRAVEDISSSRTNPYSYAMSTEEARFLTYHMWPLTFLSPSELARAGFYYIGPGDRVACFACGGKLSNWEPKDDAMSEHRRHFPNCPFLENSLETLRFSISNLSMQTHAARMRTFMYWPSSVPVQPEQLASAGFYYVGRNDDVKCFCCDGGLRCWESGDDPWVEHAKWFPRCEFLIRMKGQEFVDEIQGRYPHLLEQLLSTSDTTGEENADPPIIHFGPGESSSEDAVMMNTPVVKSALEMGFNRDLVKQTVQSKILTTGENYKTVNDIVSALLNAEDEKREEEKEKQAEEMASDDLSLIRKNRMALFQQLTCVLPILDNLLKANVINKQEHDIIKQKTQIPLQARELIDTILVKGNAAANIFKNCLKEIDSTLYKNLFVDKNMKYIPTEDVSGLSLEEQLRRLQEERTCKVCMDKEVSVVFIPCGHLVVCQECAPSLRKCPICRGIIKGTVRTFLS

cIAP2 = cIAP2 (Homo sapiens, UniProt Q13489); experiment: Immunoblotting (western blot) quantification of cIAP2 levels in MM.1S cells; conditions: MM1.S, 16 h
Chain of cIAP2 (Q13489 whole entry): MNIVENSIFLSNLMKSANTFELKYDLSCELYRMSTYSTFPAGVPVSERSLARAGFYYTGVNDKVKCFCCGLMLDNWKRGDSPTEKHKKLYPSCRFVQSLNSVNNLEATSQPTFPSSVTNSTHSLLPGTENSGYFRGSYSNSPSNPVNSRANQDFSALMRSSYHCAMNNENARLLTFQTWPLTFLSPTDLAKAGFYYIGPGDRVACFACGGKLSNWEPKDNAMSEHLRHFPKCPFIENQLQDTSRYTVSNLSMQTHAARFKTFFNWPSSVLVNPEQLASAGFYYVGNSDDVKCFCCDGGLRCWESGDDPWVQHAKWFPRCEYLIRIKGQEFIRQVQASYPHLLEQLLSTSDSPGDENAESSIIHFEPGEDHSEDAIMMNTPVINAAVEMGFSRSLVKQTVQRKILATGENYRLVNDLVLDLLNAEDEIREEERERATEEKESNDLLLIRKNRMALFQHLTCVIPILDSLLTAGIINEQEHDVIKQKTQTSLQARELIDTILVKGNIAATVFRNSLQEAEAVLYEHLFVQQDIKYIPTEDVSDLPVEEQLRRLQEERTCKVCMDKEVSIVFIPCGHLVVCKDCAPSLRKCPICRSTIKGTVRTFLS

[1] = system: IAPs (cIAP1, cIAP2, XIAP); experiment: Immunoblotting of IAPs in MM.1S cells, overall degradation profile, time course and washout; assay type: cell-based; conditions: 16 h, western blot, concentration (10 nM to 1 μM)
Protocol: Next, we examined the persistence of IAP degradation in MM.1S cells after a single exposure to 1 μM of 9 and subsequent removal of the compound. […] The reliance on CRL2^VHL was assessed with a neddylation inhibitor MLN4924, which blocks the activity of CRLs (Figure S13A).

[2] = Log D7.4 measurement by chromatographic (fast-gradient HPLC) method; conditions: pH 7.4
Protocol: The system was calibrated by plotting the retention times of six different drugs (atenolol, metoprolol, labetalol, diltiazem, triphenylene, and permethrin) versus their literature-known log D7.4 in a calibration line (R^2 = 0.99). Subsequently, the mean retention times of the analytes were taken to calculate their log D7.4 values with the aid of the calibration line. At least two independent measurements of each analyte were performed.

[3] = read-out: %remaining protein XIAP, MM.1S cells, 16 h treatment at 0.1 μM, normalized to loading control and DMSO
[4] = 16 h, read-out: %remaining protein VHL30, MM.1S cells, 16 h treatment at 0.1 μM, normalized to loading control and DMSO
[5] = read-out: %remaining protein cIAP1, MM.1S cells, 16 h treatment at 0.1 μM, normalized to loading control and DMSO
[6] = read-out: %remaining protein cIAP2, MM.1S cells, 16 h treatment at 0.1 μM, normalized to loading control and DMSO
[7] = read-out: %remaining protein XIAP
[8] = 16 h, read-out: %remaining protein VHL30
[9] = read-out: %remaining protein cIAP1
[10] = read-out: %remaining protein cIAP2

Chain of VHL30 (P40337 whole entry): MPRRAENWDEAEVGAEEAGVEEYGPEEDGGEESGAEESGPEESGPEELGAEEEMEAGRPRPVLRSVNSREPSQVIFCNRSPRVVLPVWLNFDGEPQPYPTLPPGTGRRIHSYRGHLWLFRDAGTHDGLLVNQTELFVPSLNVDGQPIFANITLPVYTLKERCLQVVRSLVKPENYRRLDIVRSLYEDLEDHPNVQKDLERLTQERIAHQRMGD

| remaining activity at 0.1 µM (XIAP; [3]) [%] | remaining activity at 0.1 µM (VHL30; [4]) [%] | remaining activity at 0.1 µM (cIAP1; [5]) [%] | remaining activity at 0.1 µM (cIAP2; [6]) [%] | SMILES | IAP degradation profile (in words) [1] | further results |
| --- | --- | --- | --- | --- | --- | --- |
| 8 | 41 | 6 | 37 | CN[C@H](C)C(=O)N[C@H](C(=O)N1C[C@@H](Oc2cccc(OCCCCC(=O)N[C@H](C(=O)N3C[C@H](O)C[C@H]3C(=O)N[C@@H](C)c3ccc(-c4scnc4C)cc3)C(C)(C)C)c2)C[C@H]1C(=O)N[C@@H]1CCCc2ccccc21)C1CCCCC1 [PROTAC 10a, (2S,4S)-1-((S)-2-Cyclohexyl-2-((R)-2-(methylamino)propanamido)acetyl)-4-(3-((5-(((S)-1-((2S,4R)-4-hydroxy-2-(((S)-1-(4-(4-methylthiazol-5-yl)phenyl)ethyl)carbamoyl)pyrrolidin-1-yl)-3,3-dimethyl-1-oxobutan-2-yl)amino)-5-oxopentyl)oxy)phenoxy)-N-((R)-1,2,3,4-tetrahydronaphthalen-1-yl)pyrrolidine-2-carboxamide] | pan-IAP |  |
| 66 | 63 | 2 | 27 | Cc1ncsc1-c1ccc([C@H](C)NC(=O)[C@@H]2C[C@@H](O)CN2C(=O)[C@@H](NC(=O)CCCCOc2cccc(O[C@H]3C[C@@H](C(=O)N[C@@H]4CCCc5ccccc54)N(C(=O)[C@@H](NC(=O)[C@H](C)N(C)C)C4CCCCC4)C3)c2)C(C)(C)C)cc1 [PROTAC 10b, (2S,4S)-1-((S)-2-Cyclohexyl-2-((S)-2-(dimethylamino)propanamido)acetyl)-4-(3-((5-(((S)-1-((2S,4R)-4-hydroxy-2-(((S)-1-(4-(4-methylthiazol-5-yl)phenyl)ethyl)carbamoyl)pyrrolidin-1-yl)-3,3-dimethyl-1-oxobutan-2-yl)amino)-5-oxopentyl)oxy)phenoxy)-N-((R)-1,2,3,4-tetrahydronaphthalen-1-yl)pyrrolidine-2-carboxamide] | cIAP1 and cIAP2 degradation |  |
| 88 | > 99 | 94 | > 99 | CC(=O)N(C)[C@@H](C)C(=O)N[C@H](C(=O)N1C[C@@H](Oc2cccc(OCCCCC(=O)N[C@H](C(=O)N3C[C@H](O)C[C@H]3C(=O)N[C@@H](C)c3ccc(-c4scnc4C)cc3)C(C)(C)C)c2)C[C@H]1C(=O)N[C@@H]1CCCc2ccccc21)C1CCCCC1 [PROTAC 10c, (2S,4S)-1-((S)-2-Cyclohexyl-2-((S)-2-(N-methylacetamido)propanamido)acetyl)-4-(3-((5-(((S)-1-((2S,4R)-4-hydroxy-2-(((S)-1-(4-(4-methylthiazol-5-yl)phenyl)ethyl)carbamoyl)pyrrolidin-1-yl)-3,3-dimethyl-1-oxobutan-2-yl)amino)-5-oxopentyl)oxy)phenoxy)-N-((R)-1,2,3,4-tetrahydronaphthalen-1-yl)pyrrolidine-2-carboxamide] | inactivated PROTACs |  |

Second part, the compound before the results:

| SMILES | remaining activity at 0.1 µM (XIAP; [3]) [%] | remaining activity at 0.1 µM (VHL30; [4]) [%] | remaining activity at 0.1 µM (cIAP1; [5]) [%] | remaining activity at 0.1 µM (cIAP2; [6]) [%] | IAP degradation profile (in words) [1] | further results |
| --- | --- | --- | --- | --- | --- | --- |
| Cc1ncsc1-c1ccc(CNC(=O)[C@@H]2C[C@@H](O)CN2C(=O)[C@@H](NC(=O)COCCOCCOCCOCCOCCOCC(=O)N[C@H](C(=O)N2C[C@H](O)C[C@H]2C(=O)NCc2ccc(-c3scnc3C)cc2)C(C)(C)C)C(C)(C)C)cc1 [CM11, reference compound] |  |  |  |  |  | VHL30 degradation (in words) (VHL30; MM.1S cells, western blot): strong and dose-dependent VHL30 degradation |
| CN[C@@H](C)C(=O)N[C@H](C(=O)N1C[C@@H](Oc2cccc(OCCCCOCCCC(=O)N[C@H](C(=O)N3C[C@H](O)C[C@H]3C(=O)NCc3ccc(-c4scnc4C)cc3)C(C)(C)C)c2)C[C@H]1C(=O)N[C@@H]1CCCc2ccccc21)C1CCCCC1 [PROTAC 3, (2S,4S)-1-((S)-2-Cyclohexyl-2-((S)-2-(methylamino)propanamido)acetyl)-4-(3-(4-(4-(((S)-1-((2S,4R)-4-hydroxy-2-((4-(4-methylthiazol-5-yl)benzyl)carbamoyl)pyrrolidin-1-yl)-3,3-dimethyl-1-oxobutan-2-yl)amino)-4-oxobutoxy)butoxy)phenoxy)-N-((R)-1,2,3,4-tetrahydronaphthalen-1-yl)pyrrolidine-2-carboxamide] | 4 | 29 | 3 | 30 |  | VHL30 protein degradation (VHL30; MM.1S cells, 16 h, 0.1 μM, quantified by western blot): 71% |
| CN[C@@H](C)C(=O)N[C@H](C(=O)N1C[C@@H](Oc2cccc(OCCOCCOCCOCC(=O)N[C@H](C(=O)N3C[C@H](O)C[C@H]3C(=O)NCc3ccc(-c4scnc4C)cc3)C(C)(C)C)c2)C[C@H]1C(=O)N[C@@H]1CCCc2ccccc21)C1CCCCC1 [PROTAC 5, (2S,4R)-1-((S)-2-(tert-Butyl)-14-(3-(((3S,5S)-1-((S)-2-cyclohexyl-2-((S)-2-(methylamino)propanamido)acetyl)-5-(((R)-1,2,3,4-tetrahydronaphthalen-1-yl)carbamoyl)pyrrolidin-3-yl)oxy)phenoxy)-4-oxo-6,9,12-trioxa-3-azatetradecanoyl)-4-hydroxy-N-(4-(4-methylthiazol-5-yl)benzyl)pyrrolidine-2-carboxamide] | 2 | 37 | 2 | 37 |  |  |
| CN[C@@H](C)C(=O)N[C@H](C(=O)N1C[C@@H](Oc2cccc(OCCCCCCOCCCCCOCCCCC(=O)N[C@H](C(=O)N3C[C@H](O)C[C@H]3C(=O)NCc3ccc(-c4scnc4C)cc3)C(C)(C)C)c2)C[C@H]1C(=O)N[C@@H]1CCCc2ccccc21)C1CCCCC1 [PROTAC 7, (2S,4S)-1-((S)-2-Cyclohexyl-2-((S)-2-(methylamino)propanamido)acetyl)-4-(3-((6-((5-((5-(((S)-1-((2S,4R)-4-hydroxy-2-((4-(4-methylthiazol-5-yl)benzyl)carbamoyl)pyrrolidin-1-yl)-3,3-dimethyl-1-oxobutan-2-yl)amino)-5-oxopentyl)oxy)pentyl)oxy)hexyl)oxy)phenoxy)-N-((R)-1,2,3,4-tetrahydronaphthalen-1-yl)pyrrolidine-2-carboxamide] |  |  |  |  |  | remaining activity at 0.1 µM (XIAP; [7]): 3%; remaining activity at 0.1 µM (VHL30; [8]): 83%; remaining activity at 0.1 µM (cIAP1; [9]): 2%; remaining activity at 0.1 µM (cIAP2; [10]): 32% |
| CN[C@@H](C)C(=O)N[C@H](C(=O)N1C[C@@H](Oc2cccc(OCCCCCCOCCCCCCOCCCCCC(=O)N[C@H](C(=O)N3C[C@H](O)C[C@H]3C(=O)NCc3ccc(-c4scnc4C)cc3)C(C)(C)C)c2)C[C@H]1C(=O)N[C@@H]1CCCc2ccccc21)C1CCCCC1 [PROTAC 8, (2S,4S)-1-((S)-2-Cyclohexyl-2-((S)-2-(methylamino)propanamido)acetyl)-4-(3-((6-((6-((6-(((S)-1-((2S,4R)-4-hydroxy-2-((4-(4-methylthiazol-5-yl)benzyl)carbamoyl)pyrrolidin-1-yl)-3,3-dimethyl-1-oxobutan-2-yl)amino)-6-oxohexyl)oxy)hexyl)oxy)hexyl)oxy)phenoxy)-N-((R)-1,2,3,4-tetrahydronaphthalen-1-yl)pyrrolidine-2-carboxamide] | 4 | 95 | 3 | 36 |  |  |
| CN[C@@H](C)C(=O)N[C@H](C(=O)N1C[C@@H](Oc2cccc(OCCCCCCOCCCCCOCCCCCOc3cc(-c4scnc4C)ccc3CNC(=O)[C@@H]3C[C@@H](O)CN3C(=O)[C@H](C(C)C)N3Cc4ccccc4C3=O)c2)C[C@H]1C(=O)N[C@@H]1CCCc2ccccc21)C1CCCCC1 [PROTAC 18, (2S,4S)-1-((S)-2-Cyclohexyl-2-((S)-2-(methylamino)propanamido)acetyl)-4-(3-((6-((5-((5-(2-(((2S,4R)-4-hydroxy-1-((S)-3-methyl-2-(1-oxoisoindolin-2-yl)butanoyl)pyrrolidine-2-carboxamido)methyl)-5-(4-methylthiazol-5-yl)phenoxy)pentyl)oxy)pentyl)oxy)hexyl)oxy)phenoxy)-N-((R)-1,2,3,4-tetrahydronaphthalen-1-yl)pyrrolidine-2-carboxamide] |  |  |  |  |  | remaining activity at 0.1 µM (XIAP; [7]): 6%; remaining activity at 0.1 µM (VHL30; [8]): 88%; chromatographic logD [2]: 5.6; remaining activity at 0.1 µM (cIAP1; [9]): 5%; remaining activity at 0.1 µM (cIAP2; [10]): 37% |
| CN[C@@H](C)C(=O)N[C@H](C(=O)N1C[C@@H](Oc2cccc(OCCCCCCOCCCCCCOCCCCCCNc3cccc4c3C(=O)N(C3CCC(=O)N(C)C3=O)C4=O)c2)C[C@H]1C(=O)N[C@@H]1CCCc2ccccc21)C1CCCCC1 (stereo partly drawn) [PROTAC 29, (2S,4S)-1-((S)-2-Cyclohexyl-2-((S)-2-(methylamino)propanamido)acetyl)-4-(3-((6-((6-((6-((2-(1-methyl-2,6-dioxopiperidin-3-yl)-1,3-dioxoisoindolin-4-yl)amino)hexyl)oxy)hexyl)oxy)hexyl)oxy)phenoxy)-N-((R)-1,2,3,4-tetrahydronaphthalen-1-yl)pyrrolidine-2-carboxamide] |  |  |  |  |  | chromatographic logD [2]: 7.4 |
